According to US11098040B2, “Compounds and methods of use” (Ferro Therapeutics, Inc., priority 2018, dated 2021):

Experiments:
[1] = Whole blood stability, human; format: in vitro ADME
From the text: (§1) The results of the assay on stability in blood and IC50 values for pancreatic cancer cell line KP4 are given below in Table 24.

[2] = Whole blood stability, mouse; format: in vitro ADME
From the text: as §1

KP4 = assay: Cell viability assay (CellTiter Glo), pancreatic ductal adenocarcinoma KP4; format: cell-based, human; settings: Homo sapiens, KP-4, 96 h, pancreatic cancer cell line KP4, 96 hours, CellTiter Glo; read-out: IC50 μM KP4
Protocol: (§2) Cell viability assay was performed to assess the potency of the compounds in human cancer cell lines KP4 (pancreatic ductal adenocarcinoma), MiaPaCa-2 (pancreatic carcinoma), AsPC-1 (pancreatic adenocarcinoma, ascites), 143B (osteosarcoma), and SJSA-1 (osteosarcoma). Selected compounds were also assayed in a human breast epithelial cell line MCF-10A, a nontumorigenic cell line as a control to assess differential activity. Cells at a density of 500-5,000 cells/well were seeded in 96-well plates and incubated at 37° C. overnight. A series of 9 different concentrations of compound stocks (500×) were created by 3-fold serial dilution in DMSO. These compounds were further diluted in culture media and then added to cells so that the final DMSO concentration was equal to 0.25% or less. After 96 hours of incubation, 50 μL of CellTiter Glo reagent (Promega) was added to each well and luminescence was measured after 10 minutes using EnVision (PerkinElmer). Compounds titrated from top concentration of up to 30 μM. The select compounds were tested initially from 30 μM as the top concentration in duplicates (range of 4.6 nM-30 μM). […] Luminescence from cells treated with DMSO alone was set as Max and % of inhibition was calculated as follows: Inhibition %=(Max-Sample value)/Max*100. Data was analyzed using XL-fit software (ID Business Solutions Ltd.). IC50, relative IC50, or % of top inhibition was calculated.
as §2, with “in” for “in human”, “line” for “lines”, “adenocarcinoma).” for “adenocarcinoma), MiaPaCa-2 (pancreatic carcinoma), AsPC-1 (pancreatic adenocarcinoma, ascites), 143B (osteosarcoma), and SJSA-1 (osteosarcoma). Selected compounds were also assayed in a human breast epithelial cell line MCF-10A, a nontumorigenic cell line as a control to assess differential activity.”, “1,000-10,000” for “500-5,000”, “All” for “Compounds titrated from top concentration of up to 30 μM. The select”
as §1

Structure (SMILES)	Whole Blood Stability % Remaining at 37° C. Human ([1]; 0 min) [%]	Whole Blood Stability % Remaining at 37° C. Human ([1]; 30 min) [%]	Whole Blood Stability % Remaining at 37° C. Human ([1]; 60 min) [%]	Whole Blood Stability % Remaining at 37° C. Mouse ([2]; 0 min) [%]	Whole Blood Stability % Remaining at 37° C. Mouse ([2]; 30 min) [%]	Whole Blood Stability % Remaining at 37° C. Mouse ([2]; 60 min) [%]	IC50 (KP4) [µM]
COC(=O)[C@H]1Cc2c([nH]c3ccccc23)[C@@H](c2ccc(C(=O)N3CCC(O)CC3)cc2)N1C(=O)CCl [Compound 32a]	100.0	1.9	0.9	100.0	0.0	0.0	> 1
COC(=O)[C@H]1Cc2c([nH]c3ccccc23)[C@H](c2ccc(C(=O)OC(C)(C)C)cc2)N1C(=O)C(C)Cl (stereo partly drawn) [Compound 33]	100.0	104.7	103.8	100.0	78.9	69.3	> 1
COC(=O)[C@H]1CC2c3ccccc3NC2[C@H](c2ccc(C(=O)OC(C)(C)C)cc2)N1C(=O)C(F)(F)Cl (stereo partly drawn) [Compound 34]	100.0	104.9	113.4	100.0	75.6	80.6	> 1
COC(=O)[C@H]1Cc2c([nH]c3ccccc23)[C@H](c2ccc(S(=O)(=O)N3CCC(O)CC3)cc2)N1C(=O)CCl [Compound 35]	100.0	39.3	20.5	100.0	32.9	14.8	0.01 to 0.1
COC(=O)[C@H]1Cc2c([nH]c3ccccc23)[C@H](c2ccc(S(=O)(=O)N3CC(O)C3)cc2)N1C(=O)CCl [Compound 37]	100.0	37.8	17.9	100.0	25.4	9.8	0.01 to 0.1
CN(C)C(=O)c1ccc([C@H]2c3[nH]c4ccccc4c3C[C@H](C(=O)N(C)C)N2C(=O)CCl)cc1 [Compound 38]	100.0	46.2	28.5	100.0	72.9	62.0	0.5 to 1
CC(C)N(C(=O)[C@H]1Cc2c([nH]c3ccccc23)[C@H](c2ccc(C(=O)N(C)C)cc2)N1C(=O)CCl)C(C)C [Compound 39]	100.0	64.5	50.4	100.0	73.2	60.4	0.1 to 0.5
COC(=O)C1CCC([C@H]2c3[nH]c4ccccc4c3C[C@H](C(=O)N(C)C)N2C(=O)CCl)CC1 (stereo partly drawn) [Compound 41]	100.0	82.4	100.0	100.0	0.0	0.0	0.01 to 0.1
CN(C)C(=O)[C@H]1Cc2c([nH]c3ccccc23)[C@H](C2CCN(C(=O)OC(C)(C)C)CC2)N1C(=O)CCl [Compound 42]	100.0	46.2	28.5	100.0	72.9	62.0	> 1
CN(C)C(=O)[C@H]1Cc2c([nH]c3ccccc23)[C@H](c2ccc(C(=O)N3CCC(O)CC3)cc2)N1C(=O)CCl [Compound 45]	100.0	71.4	56.4	100.0	91.2	81.5	> 1
CN(C)C(=O)[C@H]1Cc2c([nH]c3ccccc23)[C@H](c2ccc(S(=O)(=O)N3CCC(O)CC3)cc2)N1C(=O)CCl [Compound 49]	100.0	43.0	13.7	100.0	82.5	52.5	> 1
COCCN(C(=O)c1ccc([C@H]2c3[nH]c4ccccc4c3C[C@H](C(=O)N(C)C)N2C(=O)CCl)cc1)C(C)(C)C [Compound 52]	100.0	51.8	59.4	100.0	79.9	52.0	0.01 to 0.1
CN(C)C(=O)[C@H]1Cc2c([nH]c3ccccc23)[C@H](c2ccc(C(=O)N(CCC(=O)OC(C)(C)C)C(C)(C)C)cc2)N1C(=O)CCl [Compound 54]	100.0	44.9	40.4	100.0	42.9	13.8	0.01 to 0.1
CN(C)C(=O)c1ccc([C@H]2c3sc4ccccc4c3C[C@H](C(=O)N(C)C)N2C(=O)CCl)cc1 [Compound 55]	100.0	50.6	20.6	100.0	51.4	24.6	0.1 to 0.5
CN(C)C(=O)c1ccc([C@@H]2c3sc4ccccc4c3C[C@H](C(=O)N(C)C)N2C(=O)CCl)cc1 [Compound 55a]	100.0	42.6	16.7	100.0	82.3	60.4	0.5 to 1
CN(C)C(=O)[C@H]1Cc2c([nH]c3ccccc23)[C@H](c2ccc(NC(=O)OC(C)(C)C)cc2)N1C(=O)CCl [Compound 56]	100.0	59.3	60.7	100.0	84.1	38.9	0.01 to 0.1
CN(C)C(=O)c1ccc([C@H]2c3[nH]c4ccccc4c3C[C@H](C(N)=O)N2C(=O)CCl)cc1 [Compound 58]	100.0	64.4	40.5	100.0	89.9	67.0	> 1
CN(C)C(=O)[C@H]1Cc2c([nH]c3ccccc23)[C@H](c2ccc(S(C)(=O)=O)cc2)N1C(=O)CCl [Compound 59]	100.0	48.9	51.5	100.0	97.9	65.6	0.1 to 0.5
